US11944605B2, “Rapamycin analogs and uses thereof” (Janssen Pharmaceutica NV, priority 2018, dated 2024)
Converted amounts (≈) assume the structure as drawn. “Also recorded” adds a separate entry of the source. Like-named read-outs stand apart in the source and are kept apart here.

Experiments:
[1] = system: mTORC1 pathway in tuberous sclerosis 2 (TSC2) positive (TSC+/+) MEF cells; experiment: Western blot, mTORC1 pathway in TSC+/+ MEF cells; type: cell-based, mouse
Description: (§1) The methods employed were substantially similar to those described above. Compounds were evaluated in PC3 cells, Jurkat cells, wild-type mouse embryotic fibroblast (MEF) cells, tuberous sclerosis 2 (TSC2) negative (TSC −/−) MEF cells, and tuberous sclerosis 2 (TSC2) positive (TSC +/+) MEF cells. Cells were incubated with compounds of the present invention for various time periods (e.g., 5 minutes, 15 minutes, 30 minutes, 90 minutes, 24 hours, or 48 hours), and evaluated according to known methodologies, such as those herein described.

mTORC1 over mTORC2 = experiment: mTORC1 selectivity over mTORC2 at 24 hrs (Western blot based pS6K1 and pAKT assay); type: cell-based; conditions: 24 hrs
[2] = system: pS6K1 (p-p70 S6 Kinase (Thr389)) in MCF-7 cells; experiment: AlphaLISA Ultra pS6K1 Assay; type: cell-based; conditions: Homo sapiens, 1.5 h; MCF7 cells, 90 min
Method in brief: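 MCF-7 cells were seeded for 20–24 h, refed with fresh medium for 2 h, then treated with compound for 90 min at 0.5% final DMSO. Lysates were frozen at −80 °C, thawed and assayed by AlphaLISA with acceptor then donor beads, 2 h each.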

[3] = system: mTORC2 (Akt phosphorylation) in TSC+/+ MEF cells; experiment: Western blot, mTORC2 pathway (pAkt) in TSC+/+ MEF cells; type: cell-based, mouse
Description: as §1

[4] = system: mTORC1 pathway (pS6K1 T389) in PC3 cells; experiment: Western blot, mTORC1 pathway (pS6K1) in PC3 cells; type: cell-based; conditions: PC3 cells, 24 hours
Description: (§2) Western Blot Based pS6K1 and pAKT Assay at 24 and 48 Hour Timepoints
(§3) 1. Seed six well plate with 500,000 PC3 cells per well and incubate for 20˜24 hour.
(§4) 2. Add compounds into the cell plate. Incubate for 24 to 48 hours.
(§5) 4. Plate is placed on ice and the media is removed via aspiration. The wells are washed with 1 mL of 1× PBS and then fully aspirated.
(§6) 5. 110 μL of 1% Triton Lysis Buffer is added and each well is scraped vigorously.
(§7) 6. Cell homogenates are transferred to 1.5 mL eppendorf tubes on ice and spun down at 4° C. for 10 minutes at 10,000 rpm.
(§8) 9. The membranes were washed 3× with TBS-T with a 5 minute incubation between each wash then incubated with secondary antibody (LiCor IRDye 800 Donkey Anti Rabbit) for at least 30 minutes.
(§9) 10. The membranes were washed 3× with TBS-T with a 5 minute incubation between each wash.
(§10) 11. The gels were then incubated for 5 minutes with PBS at room temperature then imaged using a Li-Cor.
as §1

[5] = system: mTORC1 pathway in wild-type MEF cells; experiment: Western blot, mTORC1 pathway in wild-type MEF cells; type: cell-based, mouse; conditions: 24 hours
Description: as §1

[6] = system: mTORC2 pathway (Akt phosphorylation) in PC3 cells; experiment: Western blot, mTORC2 pathway (pAkt) in PC3 cells; type: cell-based; conditions: 24 hours
Description: as §2, §3, §4, §5, §6, §7, §8, §9, §10, §1

[7] = system: mTORC2 (Akt phosphorylation) in wild-type MEF cells; experiment: Western blot, mTORC2 pathway (pAkt) in wild-type MEF cells; type: cell-based, mouse; conditions: 24 hours
Description: as §1

[8] = Pharmacokinetic properties in C57Bl/6 mice; type: in vivo; conditions: mouse, plasma; for half-life: read-out: Terminal T1/2 (converted)
Description: Pharmacokinetic Properties
The pharmacokinetic properties of compounds of the present invention were evaluated in C57Bl/6 mice and compared with rapamycin. Animals were fasted overnight prior to administration of I-29 or rapamycin (1 mg/kg IV, 10 mg/kg PO, or 2 mg/kg IP). Animals were bled at time intervals for up to 48 hours following administration of compounds. Whole blood from each mouse was indivisually collected in polypropylene tubes and immediately centrifuged. Alloquates of the separated plasma were promptly prepared for HPCL analysis.

IFN-γ production = IFN-γ production in allogenic mixed lymphocyte reaction; type: cell-based; conditions: read-out: IFN-γ Inhibition IC50s
Description: Assessment of Effect on IFN-γ Production in Allogenic Mixed Lymphocyte Reaction
The effect of rapamycin, everolimus, I-29, and I-117 on IFN-y production was evaluated in an allogenic mixed lymphocyte reaction (E.g., Eleftheriadis, T. et al., Int. J. Mol. Med., 37(5): 1412-20 (2016) https://doi.org/10.3892/ijmm.2016.2547).

[9] = Solubility in 100 mM phosphate buffer (pH 7.4); type: physicochemical; conditions: pH 7.4, aqueous buffer
Excerpt: The compound numbers correspond to the compound numbers in Table 1.

[10] = system: pAKT (p-Akt 1/2/3 (Ser473)) in MCF-7 cells; experiment: AlphaLISA Ultra pAKT Assay; type: cell-based; conditions: Homo sapiens, 1.5 h; MCF7 cells, 90 min
Description: AlphaLISA Ultra pAKT Assay
1. MCF-7 cells in Corning 3701 plate and incubate for 20˜24 hour.
16,000˜20,000 cells will be seeded in 36 μL medium per well.
2. Change the culture medium with fresh medium and incubate for another 90 minutes.
3. […]
4. Aspirate […] by HAMILTON, 10 μL rest per well.
5. Add 10 μL 2× lysis buffer using HAMILTON; total volume in wells is 20 μL. Allow cells to shake for 30 min. Cover plate by plastic foil and store plate at −80° C. up to analysis.
6. Thaw cell lysate at RT and transfer 10 ul lysate to assay plate (Optiplate-384).
7. Add 5 μL acceptor beads into assay plate and incubation for 2 hours
8. Add 5 μL donor beads and incubation for 2 hours
9. Count the plate by EnSpire Multimode Plate Reader

[11] = system: 4E-BP1 phosphorylation in TSC+/+ MEF cells; experiment: Western blot, 4E-BP1 phosphorylation in TSC+/+ MEF cells; type: cell-based, mouse; conditions: 24 hours
Description: as §1

[12] = system: 4E-BP1 phosphorylation in PC3 cells; experiment: Western blot, 4E-BP1 phosphorylation in PC3 cells; type: cell-based; conditions: 24 hours
[13] = system: mTORC1 pathway in tuberous sclerosis (TSC2) negative (TSC−/−) MEF cells; experiment: Western blot, mTORC1 pathway in TSC−/− MEF cells; type: cell-based, mouse; conditions: 24 hours
Description: as §1

| Compound | inhibition of the mTORC1 pathway ([1]; 24 hours) | mTORC1 selective @ 24 hrs (mTORC1 over mTORC2) | IC50 [2] [nM] | inhibition of mTORC2 (Akt phosphorylation) ([3]; 24 hours) | inhibition of the mTORC1 pathway [4] | inhibition of the mTORC1 pathway [5] | inhibition of mTORC2 (Akt phosphorylation) [6] | inhibition of mTORC2 (Akt phosphorylation) [7] | solubility [9] [µM] | IC50 [10] [nM] | also measured |
| --- | --- | --- | --- | --- | --- | --- | --- | --- | --- | --- | --- |
| CO[C@@H]1C[C@H](C[C@@H](C)[C@@H]2CC(=O)[C@H](C)/C=C(\C)[C@@H](O)[C@@H](OC)C(=O)[C@H](C)C[C@H](C)/C=C/C=C/C=C(\C)[C@@H](OCCOCCOCCOCCO)C[C@@H]3CC[C@@H](C)[C@@](O)(O3)C(=O)C(=O)N3CCCC[C@H]3C(=O)O2)CC[C@H]1OCCO [I-115, (21E,23E,25E,26E,38R,39S,40R,41R,43S,45S,47S,48S,49R,50R,59R)-49, 59-dihydroxy-47-[2-[2-[2-(2-hydroxyethoxy)ethoxy]ethoxy]ethoxy]-48-[(1R)-2-[(1S,3R, 4R)-4-(2-hydroxyethoxy)-3-methoxy-cyclohexyl]-1-methyl-ethyl]-50-methoxy-38,39,40,41,51,52-hexamethyl-70, 71-dioxa-60-azatricyclohexatriaconta-21,23,25(51),26(52)-tetraene-53, 54,55,56,57-pentone] | moderate concentration dependent inhibition | YES | 0.1 to 1 | does not inhibit | strong inhibition | moderate concentration dependent inhibition | does not inhibit | does not inhibit |  |  |  |
| CO[C@@H]1C[C@H](C[C@@H](C)[C@@H]2CC(=O)[C@H](C)/C=C(\C)[C@@H](O)[C@@H](OC)C(=O)[C@H](C)C[C@H](C)/C=C/C=C/C=C(\C)[C@@H](OCCOCCOCCO)C[C@@H]3CC[C@@H](C)[C@@](O)(O3)C(=O)C(=O)N3CCCC[C@H]3C(=O)O2)CC[C@H]1O [I-29] |  |  |  |  |  |  |  |  |  |  | AUC(0-inf) ([8]; 1 mg/kg IV): 18400 ng·h/mL; AUC(0-t) ([8]; 1 mg/kg IV): 17600 ng·h/mL; MRT inf ([8]; 1 mg/kg IV): 15.9 h; clearance ([8]; 1 mg/kg IV): 0.9 mL/min/kg; half-life ([8]; 1 mg/kg IV): 14.7 h; Vd ([8]; 1 mg/kg IV, read-out: Vss): 0.863 L/kg; AUC(0-inf) ([8]; 2 mg/kg IP): 16900 ng·h/mL; AUC(0-t) ([8]; 2 mg/kg IP): 16600 ng·h/mL; Cmax ([8]; 2 mg/kg IP): 2590 ng/mL; Tmax ([8]; 2 mg/kg IP): 0.25 h; half-life ([8]; 2 mg/kg IP): 12.6 h; AUC(0-inf) ([8]; 10 mg/kg PO): 31700 ng·h/mL; AUC(0-t) ([8]; 10 mg/kg PO): 31200 ng·h/mL; Cmax ([8]; 10 mg/kg PO): 3290 ng/mL; Tmax ([8]; 10 mg/kg PO): 0.25 h; half-life ([8]; 10 mg/kg PO): 11 h; IC50 (IFN-γ production): > 3000 nM |
| CO[C@@H]1C[C@H](C[C@@H](C)[C@@H]2CC(=O)[C@H](C)/C=C(\C)[C@@H](O)[C@@H](OC)C(=O)[C@H](C)C[C@H](C)/C=C/C=C/C=C(\C)[C@@H](OCCOCCO)C[C@@H]3CC[C@@H](C)[C@@](O)(O3)C(=O)C(=O)N3CCCC[C@H]3C(=O)O2)CC[C@H]1O [I-20] | moderate concentration dependent inhibition | YES | 0.1 to 1 | do not inhibit |  |  |  |  | 30 to 60 (≈ 29.6 to 59.3 µg/mL) | ≥ 100 |  |
| COCCOCCO[C@H]1C[C@@H]2CC[C@@H](C)[C@@](O)(O2)C(=O)C(=O)N2CCCC[C@H]2C(=O)O[C@H]([C@H](C)C[C@@H]2CC[C@@H](OCCO)[C@H](OC)C2)CC(=O)[C@H](C)/C=C(\C)[C@@H](O)[C@@H](OC)C(=O)[C@H](C)C[C@H](C)/C=C/C=C/C=C/1C [I-105, (22E,24E,26E,27E,35R,36S,37R,38R,40S,42S,44S,45S,46R,47R,56R)-46, 56-dihydroxy-45-[(1R)-2-[(1S,3R, 4R)-4-(2-hydroxyethoxy)-3-methoxy-cyclohexyl]-1-methyl-ethyl]-47-methoxy-44-[2-(2-methoxyethoxy)ethoxy]-35,36,37,38,48,49-hexamethyl-66, 67-dioxa-57-azatricyclohexatriaconta-22,24,26(48),27(49)-tetraene-50, 51,52,53,54-pentone] | strong inhibition | YES | < 0.1 | do not inhibit |  | moderate inhibition; also recorded: strong inhibition |  | do not inhibit |  |  | inhibition of the mTORC1 pathway ([1]; 90 minutes): strong inhibition; inhibition of mTORC2 (Akt phosphorylation) ([3]; 90 minutes): does not inhibit; inhibition of 4E-BP1 phosphorylation [11]: no inhibition |
| COCCOCCOC1C[C@@H]2CC[C@@H](C)[C@@](O)(O2)C(=O)C(=O)N2CCCC[C@H]2C(=O)O[C@H]([C@H](C)C[C@@H]2CC[C@@H](OCCO)[C@H](OC)C2)CC(=O)[C@H](C)/C=C(\C)[C@@H](O)[C@@H](OC)C(=O)[C@H](C)C[C@H](C)/C=C/C=C/C=C/1C (some centres unmarked) [I-2] | moderate concentration dependent inhibition | YES | 0.1 to 1 | do not inhibit | strong inhibition |  | do not inhibit |  | 30 to 60 (≈ 31.4 to 62.8 µg/mL) | ≥ 100 | inhibition of 4E-BP1 phosphorylation [12]: no inhibition; inhibition of the mTORC1 pathway [13]: strong inhibition |
